From US4532367A, “Antimicrobially effective derivatives of phenol and methods for their production” (VEB Jenapharm, priority 1981, dated 1985)
Counter-ions that a name gives are not always drawn.

Legend:
Solubility in water = type: physicochemical; details: in words
Stability = type: physicochemical; details: in words
Gram-Positive Bacteria = test: Effectiveness against gram-positive bacteria (general statement); type: cell-based; details: in words
[1] = Acute toxicity in white mice with subcutaneous application; details: mouse, in vivo, sc
Description: *The toxicity in mg/kg body weight is understood as acute toxicity in
white mice with subcutaneous application.

[2] = known compound, background statement; cited from earlier work
antimicrobial = details: known compound, background statement; cited from earlier work
[3] = known compound, background statement; cited from earlier work; remark: listed apart in the source

With Cc1cc(Cc2ccccc2)cc(Cl)c1O [potassium salt of 6-chloro-2-methyl-4-benzylphenol] as the compound, how does the solubility in water (Solubility in water) read?
The solubility in water was “good”.

For Cc1cc(Cc2ccccc2)cc(Cl)c1O [calcium salt of 2-chloro-6-methyl-4-benzylphenol] [calcium salt of 6-chloro-2-methyl-4-benzylphenol], which stability (Stability) is on record?
Its stability is “very stable”.

What about the “effectiveness against gram-positive bacteria” value (Gram-Positive Bacteria) of the same compound?
The value was “particularly effective”.

What about the solubility in water (Solubility in water) of the same compound?
Its solubility in water is “only little soluble in water”.

Which LD50 [1] does the source give for Cc1cc(Cc2ccccc2)cc(Br)c1O [2-bromo-6-methyl-4-benzylphenol, 6-bromo-2-methyl-4-benzylphenol] here?
Its LD50 is 1500 mg/kg.

With Cc1cc(Cc2ccccc2)cc(Cl)c1O [sodium salt of 6-chloro-2-methyl-4-benzylphenol] as the compound, how does the solubility in water (Solubility in water) read?
The solubility in water was “well water-soluble”.

Which results are given for Cc1cc(Cc2ccccc2)cc(Cl)c1O [2-chloro-6-methyl-4-benzylphenol]?
skin compatibility [2]: well skin-compatible; antimicrobial efficacy (antimicrobial): generally good antimicrobial efficacy; water-solubility [3]: difficult water-solubility; LD50 [1]: 1200 mg/kg

For CCc1cc(Cc2ccccc2)cc(Br)c1O [2-bromo-6-ethyl-4-benzylphenol, 6-bromo-2-ethyl-4-benzylphenol], which LD50 [1] is on record?
The LD50 was 2800 mg/kg.
